From ChEMBL document CHEMBL6127114, “Discovery of Bis-imidazolecarboxamide Derivatives as Novel, Potent, and Selective TNIK Inhibitors for the Treatment of Idiopathic Pulmonary Fibrosis” (J Med Chem, 2024)
pIC50: −log10 of the molar value. Converted amounts (≈) assume the structure as drawn.

Experiments:
[1] = Metabolic stability in human liver microsomes assessed as intrinsic clearance preincubated for 60 mins followed by NADPH addition and measured after 5 to 60 mins by LC-MS/MS analysis; format: ADME, Microsome; settings: time 65-120 min, read-out: CLH
[2] = Metabolic stability in mouse liver microsomes assessed as intrinsic clearance preincubated for 60 mins followed by NADPH addition and measured after 5 to 60 mins by LC-MS/MS analysis; format: ADME, Microsome; settings: time 65-120 min, read-out: CLH
[3] = target: T1, TRAF2 and NCK-interacting protein kinase (Homo sapiens, UniProt Q9UKE5)
physchem = settings: buffer, pH 7.4
LX-2 [4] = assay: cells; settings: Homo sapiens
LX-2 [5] = assay: cells; settings: Homo sapiens; remark: listed apart in the source
in vitro = settings: human, lx-2
[6] = Apparent permeability in human Caco-2 cells; format: ADME, cell-based
[7] = target: T2, Muscarinic acetylcholine receptor M1 (Homo sapiens, UniProt P11229); assay: Inhibition of human CHRM1 by Eurofins DiscoverX method
T2 sequence (P11229 whole entry): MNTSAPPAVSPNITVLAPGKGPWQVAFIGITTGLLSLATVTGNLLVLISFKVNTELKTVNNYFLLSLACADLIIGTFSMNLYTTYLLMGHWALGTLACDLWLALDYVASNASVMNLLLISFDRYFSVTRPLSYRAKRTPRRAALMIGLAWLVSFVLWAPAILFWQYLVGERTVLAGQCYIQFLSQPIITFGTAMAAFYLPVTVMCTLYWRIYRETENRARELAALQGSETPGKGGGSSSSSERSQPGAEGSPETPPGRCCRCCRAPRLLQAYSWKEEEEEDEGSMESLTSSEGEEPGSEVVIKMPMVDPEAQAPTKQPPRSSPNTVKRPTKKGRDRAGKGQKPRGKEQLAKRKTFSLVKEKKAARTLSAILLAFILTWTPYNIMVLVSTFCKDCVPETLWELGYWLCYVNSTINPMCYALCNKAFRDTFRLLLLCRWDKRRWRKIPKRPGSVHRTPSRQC

Mus musculus [8] = assay: Anti-hepatic fibrosis activity in CCL4-induced male C57BL6/J mouse hepatic fibrosis model assessed as change in body weight at 3 mg/kg, po meausred after 2 weeks (reference value: -1.8%); format: functional
Mus musculus [9] = assay: Anti-hepatic fibrosis activity in CCL4-induced male C57BL6/J mouse hepatic fibrosis model assessed as change in body weight at 10 mg/kg, po meausred after 2 weeks (reference value: -1.8%); format: functional
[10] = Inhibition of fibronectin-1 protein expression in human Primary bronchial epithelial cell; format: functional, cell-based
[11] = target: T1, TRAF2 and NCK-interacting protein kinase; remark: listed apart in the source

T1 sequence (Q9UKE5 whole entry): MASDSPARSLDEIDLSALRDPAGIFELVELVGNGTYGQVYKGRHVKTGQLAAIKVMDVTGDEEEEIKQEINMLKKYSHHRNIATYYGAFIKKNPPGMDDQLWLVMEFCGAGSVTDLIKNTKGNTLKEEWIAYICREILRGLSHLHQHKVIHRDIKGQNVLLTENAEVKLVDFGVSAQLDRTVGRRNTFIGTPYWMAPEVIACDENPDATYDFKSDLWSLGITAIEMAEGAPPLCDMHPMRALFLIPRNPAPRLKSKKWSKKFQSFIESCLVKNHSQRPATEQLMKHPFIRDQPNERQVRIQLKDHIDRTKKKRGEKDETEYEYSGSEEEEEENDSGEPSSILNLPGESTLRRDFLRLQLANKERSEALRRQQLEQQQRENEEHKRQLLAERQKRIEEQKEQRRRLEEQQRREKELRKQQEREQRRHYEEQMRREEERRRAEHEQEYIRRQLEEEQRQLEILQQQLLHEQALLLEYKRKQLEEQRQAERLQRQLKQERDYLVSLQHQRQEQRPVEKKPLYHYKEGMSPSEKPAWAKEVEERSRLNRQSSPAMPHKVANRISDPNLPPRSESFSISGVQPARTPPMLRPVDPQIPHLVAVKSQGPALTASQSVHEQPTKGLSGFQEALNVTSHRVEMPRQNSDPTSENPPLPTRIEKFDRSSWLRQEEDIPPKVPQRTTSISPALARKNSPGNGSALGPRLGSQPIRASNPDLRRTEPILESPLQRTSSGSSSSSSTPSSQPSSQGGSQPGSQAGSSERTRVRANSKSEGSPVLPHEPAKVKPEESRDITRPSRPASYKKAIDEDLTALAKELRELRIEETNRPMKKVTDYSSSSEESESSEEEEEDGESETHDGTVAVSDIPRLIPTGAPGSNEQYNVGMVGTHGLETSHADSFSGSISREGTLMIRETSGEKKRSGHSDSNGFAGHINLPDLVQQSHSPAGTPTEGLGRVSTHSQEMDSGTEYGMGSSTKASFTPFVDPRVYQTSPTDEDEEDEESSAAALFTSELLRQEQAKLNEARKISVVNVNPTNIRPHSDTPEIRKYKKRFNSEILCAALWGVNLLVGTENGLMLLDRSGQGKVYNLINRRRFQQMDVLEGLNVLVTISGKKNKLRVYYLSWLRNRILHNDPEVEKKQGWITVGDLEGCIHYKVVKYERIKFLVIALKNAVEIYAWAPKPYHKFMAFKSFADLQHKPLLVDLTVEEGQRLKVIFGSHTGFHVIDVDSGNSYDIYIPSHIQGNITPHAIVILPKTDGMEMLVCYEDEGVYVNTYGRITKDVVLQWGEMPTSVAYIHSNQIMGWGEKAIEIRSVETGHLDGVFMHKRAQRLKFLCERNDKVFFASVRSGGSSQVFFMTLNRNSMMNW

Question: For `CC(C)n1cnc(-c2ccc(F)cc2)c1-c1ccc(C(=O)Nc2ccc(N3CCN(C)CC3)cc2)o1`, which microsomal CLint [1] is on record?
Answer: > 150 µL/min/mg

Question: And the microsomal CLint [2]?
Answer: > 150 µL/min/mg

Question: What about the pIC50 [3] of the same compound?
Answer: 7.98

Question: What about the solubility kinetic at 24 h (physchem) of the same compound?
Answer: 40 µM (≈ 19.5 µg/mL)

Question: What does the source list for `CC(C)n1cnc(-c2ccc(F)cc2)c1-c1nc(C(=O)Nc2ccc(N3CC[N+](C)([O-])CC3)cc2)c[nH]1`?
Answer: pIC50 [3]: 7.46; pIC50 (LX-2 [4]): 6.94; pIC50 (LX-2 [5]): < 5.00; IC50 at 72 h (in vitro): > 100 µM

Question: With `CC(C)n1cnc(-c2ccc(F)cc2)c1-c1nc(C(=O)Nc2ccc(N3CCN(S(N)(=O)=O)CC3)cc2)c[nH]1` as the compound, how does the pIC50 [3] read?
Answer: 7.97

Question: What about the solubility kinetic at 24 h (physchem) of the same compound?
Answer: < 2 µM

Question: What does the source list for `CC(=O)N1CCN(c2ccc(NC(=O)c3c[nH]c(-c4c(-c5ccc(F)cc5)ncn4C(C)C)n3)cc2)CC1`?
Answer: pIC50 [3]: 8.22; pIC50 (LX-2 [4]): 6.84; pIC50 (LX-2 [5]): 6.24; IC50 at 72 h (in vitro): > 100 µM

Question: With `CC(C)n1cnc(-c2ccc(F)cc2)c1-c1nc(C(=O)Nc2ccc(CCCCC(=O)O)cc2)c[nH]1` as the compound, how does the Papp [6] read?
Answer: 0.07 ×10⁻⁶ cm/s

Question: What about the pIC50 [3] of the same compound?
Answer: 7.29

Question: And the pIC50 (LX-2 [4])?
Answer: < 5.00

Question: What about the pIC50 (LX-2 [5]) of the same compound?
Answer: < 5.00

Question: What about the IC50 at 72 h (in vitro) of the same compound?
Answer: > 100 µM

Question: What does the source list for `CC(C)n1cnc(-c2ccc(F)cc2)c1-c1nc(C(=O)Nc2ccc(C(=O)O)cc2)c[nH]1`?
Answer: Papp [6]: 0.07 ×10⁻⁶ cm/s; pIC50 [3]: 6.83; pIC50 (LX-2 [4]): < 5.00; pIC50 (LX-2 [5]): < 5.00; IC50 at 72 h (in vitro): > 100 µM

Question: With `CC(C)n1cnc(-c2ccc(F)cc2)c1-c1nc(C(=O)Nc2ccc(N3CCNCC3)cc2)c[nH]1` as the compound, how does the pIC50 [3] read?
Answer: 7.95

Question: What about the pIC50 (LX-2 [4]) of the same compound?
Answer: 7.09

Question: And the pIC50 (LX-2 [5])?
Answer: 7.19

Question: What about the IC50 at 72 h (in vitro) of the same compound?
Answer: 40.5 µM

Question: With `CC(C)n1cnc(-c2ccc(F)cc2)c1-c1nc(C(=O)Nc2ccc(N(CCO)CCO)cc2)c[nH]1` as the compound, how does the pIC50 [3] read?
Answer: 7.10

Question: What about the pIC50 (LX-2 [4]) of the same compound?
Answer: 6.08

Question: What about the pIC50 (LX-2 [5]) of the same compound?
Answer: 6.04

Question: And the IC50 at 72 h (in vitro)?
Answer: > 100 µM

Question: With `CC1CN(c2ccc(NC(=O)c3c[nH]c(-c4c(-c5ccc(F)cc5)ncn4C(C)C)n3)cc2)CC(C)N1C` (stereo not given) as the compound, how does the pIC50 [3] read?
Answer: 7.74

Question: And the pIC50 (LX-2 [4])?
Answer: 7.15

Question: And the pIC50 (LX-2 [5])?
Answer: 7.15

Question: And the IC50 at 72 h (in vitro)?
Answer: 12.3 µM

Question: With `CC(C)n1cnc(-c2ccc(F)c(F)c2)c1-c1nc(C(=O)Nc2ccc(N3CCN(C)CC3)cc2)c[nH]1` as the compound, how does the pIC50 [3] read?
Answer: 7.29

Question: With `CC(C)n1cnc(-c2ccc(Cl)cc2)c1-c1nc(C(=O)Nc2ccc(N3CCN(C)CC3)cc2)c[nH]1` as the compound, how does the pIC50 [3] read?
Answer: 7.15

Question: Which results are given for `CC(C)n1cnc(-c2ccc(F)cc2)c1-c1ccc(C(=O)Nc2ccc(CCO)cc2)o1`?
Answer: microsomal CLint [1]: > 150 µL/min/mg; microsomal CLint [2]: > 150 µL/min/mg; pIC50 [3]: 7.40; solubility kinetic at 24 h (physchem): < 2 µM

Question: With `CC(C)n1cnc(-c2ccc(F)cc2)c1-c1cccc(C(=O)Nc2ccc(N3CCN(CCO)CC3)cc2)n1` as the compound, how does the microsomal CLint [1] read?
Answer: 141 µL/min/mg

Question: What about the microsomal CLint [2] of the same compound?
Answer: 69.5 µL/min/mg

Question: And the pIC50 [3]?
Answer: 8.28

Question: And the solubility kinetic at 24 h (physchem)?
Answer: 5.3 µM (≈ 2.8 µg/mL)

Question: With `CC(C)n1cnc(-c2ccc(F)cc2)c1-c1nc(C(=O)Nc2ccc(N3CCN(C)C(=O)C3)cc2)c[nH]1` as the compound, how does the pIC50 [3] read?
Answer: 7.33

Question: What about the pIC50 (LX-2 [4]) of the same compound?
Answer: 6.05

Question: And the pIC50 (LX-2 [5])?
Answer: 6.15

Question: What about the IC50 at 72 h (in vitro) of the same compound?
Answer: > 100 µM

Question: With `CC(C)n1cnc(-c2ccc(F)cc2)c1-c1nc(C(=O)Nc2ccc(N3CCN(C(N)=O)CC3)cc2)c[nH]1` as the compound, how does the pIC50 [3] read?
Answer: 6.70

Question: With `CC(C)n1cnc(-c2ccc(F)cc2)c1-c1nc(C(=O)Nc2ccc(N3CCN(CCO)CC3)cc2)c[nH]1` as the compound, how does the pIC50 [3] read?
Answer: 7.68

Question: And the pIC50 (LX-2 [4])?
Answer: 6.91

Question: What about the pIC50 (LX-2 [5]) of the same compound?
Answer: 6.79

Question: And the IC50 at 72 h (in vitro)?
Answer: > 100 µM

Question: With `CC(C)n1cnc(-c2ccc(F)cc2)c1-c1nc(C(=O)Nc2ccc(N3CCN(C)CC3)cc2)c[nH]1` as the compound, how does the pIC50 [7] read?
Answer: 5.08

Question: What about the Activity (Mus musculus [8]) of the same compound?
Answer: -0.671%

Question: What about the Activity (Mus musculus [9]) of the same compound?
Answer: 6.065%

Question: And the pIC50 [10]?
Answer: 6.60

Question: With `CC(C)n1cnc(-c2ccc(F)cc2)c1-c1nc(C(=O)Nc2ccc(N3CCN(CC(F)(F)F)CC3)cc2)c[nH]1` as the compound, how does the pIC50 [3] read?
Answer: 7.38

Question: And the pIC50 (LX-2 [4])?
Answer: 6.28

Question: What about the pIC50 (LX-2 [5]) of the same compound?
Answer: 6.90

Question: And the IC50 at 72 h (in vitro)?
Answer: > 100 µM

Question: With `CC(C)n1cnc(-c2ccc(F)cc2)c1-c1nc(C(=O)Nc2ccc(N3CC4CCC(C3)N4C)cc2)c[nH]1` as the compound, how does the pIC50 [3] read?
Answer: 8.40

Question: And the pIC50 (LX-2 [4])?
Answer: 7.38

Question: What about the pIC50 (LX-2 [5]) of the same compound?
Answer: 7.11

Question: What about the IC50 at 72 h (in vitro) of the same compound?
Answer: 22.6 µM

Question: What does the source list for `CC(C)n1cnc(-c2ccc(F)cc2)c1-c1cccc(C(=O)Nc2ccc(N3CCN(C)CC3)cc2)n1`?
Answer: microsomal CLint [1]: 119 µL/min/mg; microsomal CLint [2]: 122 µL/min/mg; pIC50 [3]: 8.23; solubility kinetic at 24 h (physchem): 105 µM (≈ 52.4 µg/mL)

Question: With `CC(C)n1cnc(-c2ccc(F)cc2)c1-c1cccc(C(=O)Nc2ccc(CCC(=O)O)cc2)n1` as the compound, how does the microsomal CLint [1] read?
Answer: < 9.6 µL/min/mg

Question: What about the microsomal CLint [2] of the same compound?
Answer: < 9.6 µL/min/mg

Question: And the pIC50 [3]?
Answer: 8.24

Question: And the solubility kinetic at 24 h (physchem)?
Answer: < 2 µM

Question: With `CC(C)n1cnc(-c2ccc(C(F)(F)F)cc2)c1-c1nc(C(=O)Nc2ccc(N3CCN(C)CC3)cc2)c[nH]1` as the compound, how does the pIC50 [3] read?
Answer: < 5.00

Question: Which results are given for `CC(C)n1cnc(-c2ccc(F)cc2)c1-c1cccc(C(=O)Nc2ccc(CCO)cc2)n1`?
Answer: microsomal CLint [1]: 161 µL/min/mg; microsomal CLint [2]: 124 µL/min/mg; pIC50 [3]: 8.24; solubility kinetic at 24 h (physchem): < 2 µM

Question: What does the source list for `CC(C)n1cnc(-c2ccc(F)cc2)c1-c1nc(C(=O)Nc2ccc(CCC(=O)O)cc2)c[nH]1`?
Answer: Papp [6]: 0.07 ×10⁻⁶ cm/s; pIC50 [3]: 7.33; pIC50 (LX-2 [4]): < 5.00; pIC50 (LX-2 [5]): < 5.00; IC50 at 72 h (in vitro): > 100 µM

Question: Which results are given for `CC(C)n1cnc(-c2ccc(F)cc2)c1-c1nc(C(=O)Nc2ccc(CCO)cc2)c[nH]1`?
Answer: pIC50 [3]: 8.02; pIC50 (LX-2 [4]): 6.51; pIC50 (LX-2 [5]): 6.58; IC50 at 72 h (in vitro): > 100 µM

Question: With `Cn1ccc2cc(-c3ccc4c(c3)SCCN(Cc3ccc(F)cc3)C4=O)cnc21` as the compound, how does the pIC50 [11] read?
Answer: 7.59
